Patent publication US20020111486A1, “Transition metal-cyclopentadienyl-tropane conjugates” (priority 1999, published 2002)

Columns and labels:
Conditions in all cases: mean±SEM; rat striatal and cortical tissues
[1] = target: T1, dopamine transporter (DAT) (Rattus norvegicus, UniProt P23977); experiment: Dopamine transporter binding affinity in rat striatal tissue
T1 construct: from tissue; host or cells: rat striatal tissue
Protocol: (§1) The binding affinities (mean±SEM) of compounds 1a, 1b, 1c, 1d, and 1e for the dopamine transporter (DAT), the serotonin transporter (5-HTT), and norepinephrine (NET) were evaluated in, respectively, rat striatal and cortical tissues according to methods described in Tamagnan et al., Advances in Neurology, Parkinson's Disease. 80: 91-103 (1999). The results are summarized in Table 1 below. β-CIT was run concurrently as a control.

[2] = target: T2, serotonin transporter (5-HTT) (Rattus norvegicus, UniProt P31652); experiment: Serotonin transporter binding affinity in rat tissue
T2 construct: from tissue
Protocol: as §1

norepinephrine (NET) = target: T3, norepinephrine (NET) (Rattus norvegicus, UniProt Q63380); experiment: Norepinephrine transporter binding affinity in rat tissue
T3 construct: from tissue
Protocol: as §1

T3 sequence (Q63380 1-617): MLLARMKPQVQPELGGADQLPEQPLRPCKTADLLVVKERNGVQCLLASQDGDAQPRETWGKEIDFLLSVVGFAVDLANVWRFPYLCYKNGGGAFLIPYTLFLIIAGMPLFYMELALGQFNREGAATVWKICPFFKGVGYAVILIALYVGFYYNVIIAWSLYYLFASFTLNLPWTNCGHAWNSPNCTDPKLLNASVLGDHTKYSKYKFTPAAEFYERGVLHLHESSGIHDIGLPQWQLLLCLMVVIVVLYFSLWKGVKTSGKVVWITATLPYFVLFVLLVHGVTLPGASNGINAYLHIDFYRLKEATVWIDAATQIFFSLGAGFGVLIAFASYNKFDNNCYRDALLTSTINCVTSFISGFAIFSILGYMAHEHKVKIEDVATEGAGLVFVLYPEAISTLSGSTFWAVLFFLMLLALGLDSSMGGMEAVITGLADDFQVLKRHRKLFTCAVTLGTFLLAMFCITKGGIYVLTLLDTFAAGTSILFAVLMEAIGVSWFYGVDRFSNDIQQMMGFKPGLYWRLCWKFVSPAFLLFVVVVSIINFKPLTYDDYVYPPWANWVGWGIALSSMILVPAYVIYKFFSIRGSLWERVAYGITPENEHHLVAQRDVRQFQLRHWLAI
T1 sequence (P23977 whole entry): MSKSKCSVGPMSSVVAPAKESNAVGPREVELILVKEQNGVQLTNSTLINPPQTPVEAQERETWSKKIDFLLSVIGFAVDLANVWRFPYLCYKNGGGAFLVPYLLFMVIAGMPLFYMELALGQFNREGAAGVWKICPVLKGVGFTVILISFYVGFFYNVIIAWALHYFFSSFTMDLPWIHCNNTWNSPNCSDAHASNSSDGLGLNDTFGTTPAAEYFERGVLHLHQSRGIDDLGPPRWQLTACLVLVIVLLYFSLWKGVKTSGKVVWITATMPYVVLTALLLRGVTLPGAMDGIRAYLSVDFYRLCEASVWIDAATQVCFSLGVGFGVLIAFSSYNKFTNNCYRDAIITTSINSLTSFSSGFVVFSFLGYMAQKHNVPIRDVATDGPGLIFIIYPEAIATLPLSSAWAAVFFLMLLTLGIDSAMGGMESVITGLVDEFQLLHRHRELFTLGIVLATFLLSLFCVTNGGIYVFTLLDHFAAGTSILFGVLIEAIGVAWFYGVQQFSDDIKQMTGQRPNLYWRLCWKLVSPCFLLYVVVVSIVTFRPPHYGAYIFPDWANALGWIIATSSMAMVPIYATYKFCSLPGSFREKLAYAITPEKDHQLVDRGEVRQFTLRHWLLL
T2 sequence (P31652 whole entry): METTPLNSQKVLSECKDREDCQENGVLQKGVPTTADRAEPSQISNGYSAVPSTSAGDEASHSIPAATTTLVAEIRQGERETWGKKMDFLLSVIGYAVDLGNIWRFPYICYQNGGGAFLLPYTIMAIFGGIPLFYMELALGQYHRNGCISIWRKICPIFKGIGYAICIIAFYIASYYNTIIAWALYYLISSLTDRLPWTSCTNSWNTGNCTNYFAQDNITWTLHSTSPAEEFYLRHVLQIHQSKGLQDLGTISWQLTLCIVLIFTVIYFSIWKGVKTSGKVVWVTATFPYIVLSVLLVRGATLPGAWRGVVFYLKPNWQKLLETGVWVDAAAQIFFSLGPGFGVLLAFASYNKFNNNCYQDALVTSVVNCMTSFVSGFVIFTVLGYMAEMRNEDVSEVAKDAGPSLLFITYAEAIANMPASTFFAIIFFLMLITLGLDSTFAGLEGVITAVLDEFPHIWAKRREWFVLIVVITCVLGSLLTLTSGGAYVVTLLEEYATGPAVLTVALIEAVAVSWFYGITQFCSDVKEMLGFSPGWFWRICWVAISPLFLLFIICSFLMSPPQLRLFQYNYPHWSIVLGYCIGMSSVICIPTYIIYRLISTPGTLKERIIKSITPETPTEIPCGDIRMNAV

Work on “3β-(4-Chlorophenyl)-8-(4-cyclopentadienyltricarbonyl rhenium-butyl)-8-azabicyclo[3.2.1 ]octane-2β-carboxylic acid methyl ester [Compound 1d]” yielded a Ki [1] of 5.45 ± 0.64 nM, a Ki [2] of 1.14 ± 0.16 nM and a Ki (norepinephrine (NET)) of 199 ± 30 nM.
Compound `COC(=O)C1C(c2ccc(I)cc2)CC2CCC1N2C` (stereo not drawn) [β-CIT, β-Carbomethoxy-3β-(4-iodophenyl) tropane, reference compound] has a Ki [1] of 0.96 ± 0.15 nM, a Ki [2] of 0.46 ± 0.06 nM and a Ki (norepinephrine (NET)) of 2.8 ± 0.4 nM.
Compound “N-(4-oxo-4-tricarbonylcyclopentadienylrhenio)-2β-hydroxymethyl-3β-(4-chlorophenyl)-nortropane [Compound 1a]” has a Ki [1] of 13 ± 1.8 nM, a Ki [2] of 13.3 ± 1 nM and a Ki (norepinephrine (NET)) of 74 ± 8.2 nM.
With “3-(4-Chlorophenyl)-8-(3-tricarbonylrhenatocyclopentadienyloxy-carbonylpropyl)-8-aza-bicyclo[3.2.1 ]octane-2-carboxylic acid methyl ester [Compound 1b]” the Ki [1] was 4.18 ± 0.33 nM, the Ki [2] was 5.28 ± 0.21 nM and the Ki (norepinephrine (NET)) was 74 ± 8.2 nM.
For “8-Methyl-3β-[4 carbonyl -(cyclopentadienyltricarbonyl rhenium)-phenyl]-8-azabicyclo[3.2.1 ]octane-2β-carboxylic acid methyl ester [Compound 1c]”, the Ki [1] was over 10000 nM, the Ki [2] was over 10000 nM and the Ki (norepinephrine (NET)) was over 30000 nM.
